Measured values published in article PMC11212140, “Molecular Bidents with Two Electrophilic Warheads as a New Pharmacological Modality” (ACS Central Science, 2024).

What was measured:
Assay in all cases: KiNativ profiling in H3255 cells
Type in all cases: cell-based, human
BARK1 = system: T1, BARK1; settings: 2.5 µM; Lys2; DLKPANILLDEHGHVR
T1 construct: purchased ActivX Biosciences (KiNativ)
In short: (§1)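 Cellular target engagement in H3255: cells seeded at 6.5x10^6 per condition received either DMSO or ZNL-0056 (2.5 μM) for 2 h before cold harvest, centrifugation at 4 ℃ and snap freezing for KiNativ analysis.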

EGFR-L858R = system: T2, EGFR-L858R; settings: 2.5 µM; Activation Loop; AKLLGAEEK
T2 construct: purchased ActivX Biosciences (KiNativ)
In short: as §1

FRK = system: T3, FRK; settings: 2.5 µM
T3 construct: purchased ActivX Biosciences (KiNativ)
In short: as §1

GSK3A = system: T4, GSK3A; settings: 2.5 µM; Lys2; DIKPQNLLVDPDTAVLK
T4 construct: purchased ActivX Biosciences (KiNativ)
In short: as §1

MAP3K3 = system: T5, MAP3K3; settings: 2.5 µM; Lys1; ELASKQVQFDPDSPETSKEVSALECEIQLLK
T5 construct: purchased ActivX Biosciences (KiNativ)
In short: as §1

MAP3K4 = system: T6, MAP3K4; settings: 2.5 µM
T6 construct: purchased ActivX Biosciences (KiNativ)
In short: as §1

PKN2 = system: T7, PKN2; settings: 2.5 µM; Lys2; DLKLDNLLLDTEGFVK
T7 construct: purchased ActivX Biosciences (KiNativ)
In short: as §1

PKR = system: T8, PKR; settings: 2.5 µM
T8 construct: purchased ActivX Biosciences (KiNativ)
In short: as §1

PLK1 = system: T9, PLK1; settings: 2.5 µM
T9 construct: purchased ActivX Biosciences (KiNativ)
In short: as §1

CLK1 = system: T10, CLK1; settings: 2.5 µM; Lys2; LTHTDLKPENILFVQSDYTEAYNPK
T10 construct: purchased ActivX Biosciences (KiNativ)
Protocol: (§2) Cellular target engagement assays […]
(§3) H3255 cells were plated with 6.5x10^6 per condition in fresh media in 15 cm plates and treated the 80% confluency for 2 hours with DMSO or 2.5 μM of ZNL-0056. To harvest cells, plates were washed 3 times with cold PBS, then collected by scraping into 4 mL of cold PBS containing protease and phosphatase inhibitors. Cells were pelleted by centrifugation at 1350 g at 4 ℃ for 5 minutes and immediately frozen in liquid nitrogen. The frozen samples were sent to ActivX Biosciences (La Jolla, CA) for the remainder of the KiNativ profiling experiment4. […]

DNAPK = system: T11, DNAPK; settings: 2.5 µM, ATP
T11 construct: purchased ActivX Biosciences (KiNativ)
Protocol: as §2, §3

MAP2K2 = system: T12, MAP2K2; settings: 2.5 µM; Lys2; HQIMHRDVKPSNILVNSR
T12 construct: purchased ActivX Biosciences (KiNativ)
Protocol: as §2, §3

[1] = system: MSK1 domain1, MSK2 domain1; settings: 2.5 µM; ATP Loop; VLGTGAYGKVFLVR
Protocol: as §2, §3

MST3, MST4, YSK1 = settings: 2.5 µM; Activation Loop; LADFGVAGQLTDTQIKR
Protocol: as §2, §3

NuaK2 = system: T13, NuaK2; settings: 2.5 µM; Lys1; LVAIKSIR
T13 construct: purchased ActivX Biosciences (KiNativ)
Protocol: as §2, §3

PAN3 = system: T14, PAN3; settings: 2.5 µM, ATP
T14 construct: purchased ActivX Biosciences (KiNativ)
Protocol: as §2, §3

PCTAIRE1 = system: T15, PCTAIRE1; settings: 2.5 µM; Lys1; SKLTDNLVALKEIR
T15 construct: purchased ActivX Biosciences (KiNativ)
Protocol: as §2, §3

PKD2 = system: T16, PKD2; settings: 2.5 µM; Lys1; DVAVKVIDK
T16 construct: purchased ActivX Biosciences (KiNativ)
Protocol: as §2, §3

RSK1 domain1 = system: T17, RSK1 domain1; settings: 2.5 µM
T17 construct: RSK1 domain1; purchased ActivX Biosciences (KiNativ)
Protocol: as §2, §3

SGK3 = system: T18, SGK3; settings: 2.5 µM; Lys1; FYAVKVLQK
T18 construct: purchased ActivX Biosciences (KiNativ)
Protocol: as §2, §3

SRPK1, SRPK2 = settings: 2.5 µM; Lys1; FVAMKVVK
Protocol: as §2, §3

[2] = Lys1, LGSGQFGEVWEGLWNNTTPVAVKTLKPGSMDPNDFLR
[3] = Activation Loop, IGDFGLVTSLKNDGKR
[4] = Activation Loop, LTDFGLSKEAIDHEKK

SMILES | Inhibition (BARK1) [%] | Inhibition (EGFR-L858R) [%] | Inhibition (FRK; Activation Loop, HEIKLPVK) [%] | Inhibition (FRK; [2]) [%] | Inhibition (GSK3A) [%] | Inhibition (MAP3K3) [%] | Inhibition (MAP3K4; Lys1, VYTCISVDTGELMAMKEIR) [%] | Inhibition (MAP3K4; Lys2, DIKGANIFLTSSGLIK) [%] | Inhibition (PKN2) [%] | Inhibition (PKR; [3]) [%] | Inhibition (PKR; Lys2, DLKPSNIFLVDTK) [%] | Inhibition (PLK1; Lys1, CFEISDADTKEVFAGKIVPK) [%] | Inhibition (PLK1; Lys2, DLKLGNLFLNEDLEVK) [%] | Inhibition (CLK1) [%] | Inhibition (DNAPK; EHPFLVKGGEDLR) [%] | Inhibition (DNAPK; KGGSWIQEINVAEK) [%] | Inhibition (MAP2K2) [%] | Inhibition [1] [%] | Inhibition (MST3, MST4, YSK1) [%] | Inhibition (NuaK2) [%] | further results
C=CC(=O)Nc1cc(C(=O)Nc2nc3cccc(C)c3n2[C@@H]2CCCCN(C(=O)C=C)C2)cs1 [ZNL-0056] | 17.8 | 97.2 | -77.6 | 7.6 | 11.5 | -6.3 | 16.4 | -19.0 | 22.0 | 11.7 | 0.451 | 11.9 | -1.2 | -15.4 | 26.5 | -18.3 | 5.5 | 15.3 | 12.7 | 1.9 | Inhibition (PAN3; IQKSSNFGYITSCYK): -8.7%; Inhibition (PAN3; VMDPTKILITGK): 10.8%; Inhibition (PCTAIRE1): -1.5%; Inhibition (PKD2): 10.2%; Inhibition (RSK1 domain1; [4]): 5.8%; Inhibition (RSK1 domain1; Lys1, KVTRPDSGHLYAMKVLK): -35.1%; Inhibition (SGK3): 10.1%; Inhibition (SRPK1, SRPK2): -8.1%
C=CC(=O)Nc1cc(Nc2nccc(-c3cn(C)c4ccccc34)n2)c(OC)cc1N(C)CCN(C)C [Osimertinib, osimertinib, reference compound] | -15.7 | 98.2 | -27.9 | 12.8 | -5.2 | 10.8 | 0.9 | -3.4 | 9.8 | -12.9 | 6.2 | 9.6 | 25.0 | 21.2 | 29.9 | 7.8 | 12.1 | -40.8 | -4.8 | -2.3 | Inhibition (PAN3; IQKSSNFGYITSCYK): 10.9%; Inhibition (PAN3; VMDPTKILITGK): 3.7%; Inhibition (PCTAIRE1): -20.8%; Inhibition (PKD2): -2.1%; Inhibition (RSK1 domain1; [4]): -14.9%; Inhibition (RSK1 domain1; Lys1, KVTRPDSGHLYAMKVLK): -11.7%; Inhibition (SGK3): 2.9%; Inhibition (SRPK1, SRPK2): 21.8%
